# Reference: PMC12154426, “TPP-Based Nanovesicles Kill MDR Neuroblastoma Cells and Induce Moderate ROS Increase, While Exerting Low Toxicity Towards Primary Cell Cultures: An In Vitro Study” (International Journal of Molecular Sciences, 2025)
# Tests used:
# [1] = test system: RBCs; experiment: Haemolytic toxicity on red blood cells; format: cell-based; conditions: for SI 24 h: 24 h exposure of NB cells; for SI 48 h: 48 h exposure of NB cells; for SI 72 h: 72 h exposure of NB cells
# Procedure: The IC50 values reported in Table 3 were determined after 24, 48, and 72 h of exposure of NB cells and primary cortical astrocytes and neurons to BPPB, and the HC50 determined on RBCs after the time of experiments, as for protocol, was used to calculate the SIs according to Equation (1), as reported in Table 4.
# [2] = test system: HTLA ER; experiment: DCFH assay of ROS (H2O2) production, HTLA ER; format: cell-based, human
# Source text: It has been reported that the administration of TPP-based compounds, including TPP-based bola amphiphilic nanovesicles such as BPPB, induce ROS overproduction, thus causing oxidative stress (OS), which has been widely reported to be involved in the anticancer effect of several chemotherapeutic drugs, including etoposide, doxorubicin [38], and cisplatin [39]. […] On the contrary, the role of ROS was scarcely present in PLX-resistant CMM cells exposed to the same concentrations of BPPB [13]. With these considerations, we evaluated ROS levels also in NB cells treated with BPPB, since this experiment would have been particularly helpful to understand whether (i) these nanovesicles’ preparation exerts its cytotoxic action on HTLA 230 and ER cells through ROS production, as in PLX-sensitive CMM cells; or (ii) the resistance acquired by HTLA ER based on high levels of antioxidants, following chronic treatment with etoposide, conferred resistance also to a preparation based on the use of nanovesicles (BPPBs). Moreover, the evaluation of ROS levels can be an indirect method to ascertain and confirm the presence of apoptosis, since as reported, low levels of ROS induce apoptosis and high levels induce necrosis.Therefore, to investigate the pro-oxidant action of BPPB also in HTLA 230 and HTLA ER NB cells, ROS levels were evaluated in both NB cell populations exposed for 24–72 h to increasing concentrations (0.1–2 µM) of BPPB using the DCFH essay (Figure 4). The results were reported as a percentage of cells positive to DCFH normalized for protein content. Raw fluorescence data are, in fact, not applicable since an increase in fluorescence could be due to a high number of cells but also to an increased production of H2O2 induced by the treatments. This is the reason why it is necessary to normalize the fluorescence data to the protein content. Other cellular assays measuring oxidative damage, including lipid peroxidation or protein carbonylation, are likely too complex for low-tier early hazard assessment or hazard screening. Conversely, the cellular DCFH assay is a simpler and widely used alternative, which measures intracellular ROS production by forming a fluorescent product (DCF) upon oxidation by free radicals produced by cells.
# The production of H2O2 was evaluated using 2′-7′-dichlorofluorescein-diacetate (DCFH-DA; Merk Life Science S.r.l. Milan, Italy), as previously reported. Briefly, NB cells (10^4 cells/well) were seeded in 96-well plates (Corning) and treated. Then, cells were stained with 2′-7′ di-chloro-fluorescein-diacetate (DCFH-DA; Sigma-Aldrich) and incubated with 90% DMSO for an additional 10 min in the dark. The generated fluorescence intensity was monitored with a Perkin Elmer fluorometer (Perkin Elmer Life and Analytical Sciences, Shelton, WA, USA) at 485/530 nm excitation/emission. Values were normalized to the protein content.
compound,measurement,setting,value
"c1ccc([P+](CCCCCCCCCCCC[P+](c2ccccc2)(c2ccccc2)c2ccccc2)(c2ccccc2)c2ccccc2)cc1 [BPPB, 1,1-(1,12-dodecanediyl)-bis-[1,1,1]-triphenyl phosphonium di-bromide]",SI 24 h,[1]; RBCs vs. HTLA 230,16.81
same,SI 48 h,[1]; RBCs vs. HTLA 230,33.66
same,SI 72 h,[1]; RBCs vs. HTLA 230,39.98
same,SI 24 h,[1]; RBCs vs. HTLA ER,12.56
same,SI 48 h,[1]; RBCs vs. HTLA ER,11.49
same,SI 72 h,[1]; RBCs vs. HTLA ER,12.98
same,concentration significantly inducing ROS overproduction,[2]; 24 h,1.25 µM
same,concentrations that did not induce significant changes in ROS levels,[2]; 24 h,≤ 1 µM
same,highest value of DCFH-positive cells,"[2]; 24 h, normalized for protein content, control = 1",4.92
same,increase in ROS with respect to the control,[2]; 24 h exposure,> 4 times
same,concentrations that did not induce significant changes in ROS levels,[2]; 48 h,≤ 1.25 µM
same,highest value of DCFH-positive cells,"[2]; 48 h, normalized for protein content, control = 1",3.67
same,concentrations that did not induce significant changes in ROS levels,[2]; 72 h,≤ 0.75 µM
same,maximal DCFH value in HTLA ER lower than in HTLA 230,[2]; 72 h,1.16 times
same,maximal value of DCFH-positive cells,"[2]; 72 h, normalized for protein content, control = 1",4.99
